# Test system: HIV-IIIb
# Assay: Antiviral assay in MT4 cells
# Type: cell-based
# Conditions: Human immunodeficiency virus 1, IIIB, MT4, 120 h, MT4 cells infected with HIV-IIIb, 5 days, CellTiter-Glo; read-out: EC50 nM in MT-4
# How it was run: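 MT4 cells pre-infected with HIV-IIIb (0.004 m.o.i.) at 37 °C, or mock-infected, then seeded at 2000 cells/well onto 3-fold serially diluted compound (10 concentrations, quadruplicate) in RPMI 1640 with 10% FBS. After 5 days at 37 °C, cell viability read by CellTiter-Glo luminescence.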
row,SMILES,EC50 [nM]
1,"O=C(NCc1cc(Cl)c(F)cc1F)c1cn2c(c(O)c1=O)C(=O)N1[C@H]3CC[C@H](C3)O[C@@H]1C2 [Compound 65, (2R,5 S,13aR)—N-(5-chloro-2,4-difluorobenzyl)-8-hydroxy-7,9-dioxo-2,3,4,5,7,9,13,13a-octahydro-2,5-methanopyrido[1′,2′: 4,5]pyrazino[2,1-b][1,3]oxazepine-10-carboxamide]",2.4
2,"O=C(NCc1ccc(F)c(F)c1)c1cn2c(c(O)c1=O)C(=O)N1[C@H]3CC[C@H](C3)[C@@H]1C2 [Compound 66, (1R,4S,12aR)—N-(3,4-difluorobenzyl)-7-hydroxy-6,8-dioxo-1,2,3,4,6,8,12,12a-octahydro-1,4-methanodipyrido[1,2-a:1′,2′-d]pyrazine-9-carboxamide]",9.4
3,"O=C(NCc1ccc(F)cc1C(F)(F)F)c1cn2c(c(O)c1=O)C(=O)N1[C@H]3CC[C@H](C3)[C@@H]1C2 [Compound 67, (1R,4S,12aR)—N-(4-fluoro-2-(trifluoromethyl)benzyl)-7-hydroxy-6,8-dioxo-1,2,3,4,6,8,12,12a-octahydro-1,4-methanodipyrido[1,2-a:1′,2′-d]pyrazine-9-carboxamide]",10.7
4,"O=C(NCc1ccc(F)cc1Cl)c1cn2c(c(O)c1=O)C(=O)N1[C@H]3CC[C@H](C3)[C@@H]1C2 [Compound 68, (1R,4S,12aR)—N-(2-chloro-4-fluorobenzyl)-7-hydroxy-6,8-dioxo-1,2,3,4,6,8,12,12a-octahydro-1,4-methanodipyrido[1,2-a:1′,2′-d]pyrazine-9-carboxamide]",2.7
5,"O=C(NCc1ccc(F)c(Cl)c1F)c1cn2c(c(O)c1=O)C(=O)N1[C@H]3CC[C@H](C3)[C@@H]1C2 [Compound 69, (1R,4S,12aR)—N-(3-chloro-2,4-difluorobenzyl)-7-hydroxy-6,8-dioxo-1,2,3,4,6,8,12,12a-octahydro-1,4-methanodipyrido[1,2-a:1′,2′-d]pyrazine-9-carboxamide]",1.9
6,"Cc1cccc(CNC(=O)c2cn3c(c(O)c2=O)C(=O)N2[C@H]4CC[C@H](C4)[C@@H]2C3)c1F [Compound 70, (1R,4S,12aR)—N-(2-fluoro-3-methylbenzyl)-7-hydroxy-6,8-dioxo-1,2,3,4,6,8,12,12a-octahydro-1,4-methanodipyrido[1,2-a:1′,2′-d]pyrazine-9-carboxamide]",5.1
7,"O=C(NCc1c(Cl)ccc(Cl)c1F)c1cn2c(c(O)c1=O)C(=O)N1[C@H]3CC[C@H](C3)[C@@H]1C2 [Compound 71, (1R,4S,12aR)—N-(3,6-dichloro-2-fluorobenzyl)-7-hydroxy-6,8-dioxo-1,2,3,4,6,8,12,12a-octahydro-1,4-methanodipyrido[1,2-a:1′,2′-d]pyrazine-9-carboxamide]",2.6
8,"O=C(NCc1cccc(Cl)c1)c1cn2c(c(O)c1=O)C(=O)N1[C@H]3CC[C@H](C3)[C@@H]1C2 [Compound 72, (1R,4S,12aR)—N-(3-chlorobenzyl)-7-hydroxy-6,8-dioxo-1,2,3,4,6,8,12,12a-octahydro-1,4-methanodipyrido[1,2-a:1′,2′-d]pyrazine-9-carboxamide]",4.3
9,"O=C(NCc1c(F)ccc(Cl)c1F)c1cn2c(c(O)c1=O)C(=O)N1[C@H]3CC[C@H](C3)[C@@H]1C2 [Compound 73, (1R,4S,12aR)—N-(3-chloro-2,6-difluorobenzyl)-7-hydroxy-6,8-dioxo-1,2,3,4,6,8,12,12a-octahydro-1,4-methanodipyrido[1,2-a:1′,2′-d]pyrazine-9-carboxamide]",1.8
10,"O=C(NCc1cccc(C(F)(F)F)c1F)c1cn2c(c(O)c1=O)C(=O)N1[C@H]3CC[C@H](C3)[C@@H]1C2 [Compound 74, (1R,4S,12aR)—N-(2-fluoro-3-(trifluoromethyl)benzyl)-7-hydroxy-6,8-dioxo-1,2,3,4,6,8,12,12a-octahydro-1,4-methanodipyrido[1,2-a:1′,2′-d]pyrazine-9-carboxamide]",29.3
11,"O=C(NCc1ccc(F)c(Cl)c1)c1cn2c(c(O)c1=O)C(=O)N1[C@H]3CC[C@H](C3)[C@@H]1C2 [Compound 75, (1R,4S,12aR)—N-(3-chloro-4-fluorobenzyl)-7-hydroxy-6,8-dioxo-1,2,3,4,6,8,12,12a-octahydro-1,4-methanodipyrido[1,2-a:1′,2′-d]pyrazine-9-carboxamide]",2.8
12,"O=C(NCc1ncc(F)cc1F)c1cn2c(c(O)c1=O)C(=O)N1[C@H]3CC[C@H](C3)[C@@H]1C2 [Compound 76, (1R,4S,12aR)—N-((3,5-difluoropyridin-2-yl)methyl)-7-hydroxy-6,8-dioxo-1,2,3,4,6,8,12,12a-octahydro-1,4-methanodipyrido[1,2-a:1′,2′-d]pyrazine-9-carboxamide]",17.8
13,"C[C@@H](NC(=O)c1cn2c(c(O)c1=O)C(=O)N1[C@H]3CC[C@H](C3)[C@@H]1C2)c1c(F)cc(F)cc1F [Compound 77, (1R,4 S,12aR)-7-hydroxy-6,8-dioxo-N—((R)-1-(2,4,6-trifluorophenyl)ethyl)-1,2,3,4,6,8,12,12a-octahydro-1,4-methanodipyrido[1,2-a:1′,2′-d]pyrazine-9-carboxamide]",5.6
14,"C[C@@H](NC(=O)c1cn2c(c(O)c1=O)C(=O)N1[C@@H]3CC[C@H](C3)O[C@@H]1C2)c1c(F)cc(F)cc1F [Compound 78, (2R,13aR)-8-hydroxy-7,9-dioxo-N—((R)-1-(2,4,6-trifluorophenyl)ethyl)-2,3,4,5,7,9,13,13a-octahydro-2,5-methanopyrido[1%2′: 4,5]pyrazino[2,1-b][1,3]oxazepine-10-carboxamide]",5.6
15,"O=C(NCc1cc(F)c(F)cc1F)c1cn2c(c(O)c1=O)C(=O)N1[C@H]3CC[C@H](C3)[C@@H]1C2 [Compound 79, (1R,4S,12aR)-7-hydroxy-6,8-dioxo-N-(2,4,5-trifluorobenzyl)-1,2,3,4,6,8,12,12a-octahydro-1,4-methanodipyrido[1,2-a:1′,2′-d]pyrazine-9-carboxamide]",3.4
16,"O=C(NCc1cc(Cl)c(F)cc1F)c1cn2c(c(O)c1=O)C(=O)N1[C@H]3CC[C@H](C3)[C@@H]1C2 [Compound 80, (1R,4S,12aR)—N-(5-chloro-2,4-difluorobenzyl)-7-hydroxy-6,8-dioxo-1,2,3,4,6,8,12,12a-octahydro-1,4-methanodipyrido[1,2-a:1′,2′-d]pyrazine-9-carboxamide]",4.6
17,"O=C(NCc1c(F)cc(F)cc1F)c1cn2c(c(O)c1=O)C(=O)N1[C@H](C2)[C@H]2C[C@H](F)[C@@H]1C2 [Compound 81, (1R,3S,4S,12aS)-3-fluoro-7-hydroxy-6,8-dioxo-N-(2,4,6-trifluorobenzyl)-1,2,3,4,6,8,12,12a-octahydro-1,4-methanodipyrido[1,2-a:1′,2′-d]pyrazine-9-carboxamide]",1.9
18,"O=C(NCc1c(F)cc(F)cc1F)c1cn2c(c(O)c1=O)C(=O)N1[C@@H]3C[C@@H](C[C@H]3F)[C@@H]1C2 [Compound 82, (1S,3R,4R,12aR)-3-fluoro-7-hydroxy-6,8-dioxo-N-(2,4,6-trifluorobenzyl)-1,2,3,4,6,8,12,12a-octahydro-1,4-methanodipyrido[1,2-a:1′,2′-d]pyrazine-9-carboxamide]",2.9

# Reference: US10689399B2, “Substituted 3,4,5,6,8,10,14,14a-octahydro-2h-2,6-methanopyrido[1′,2′:4,5]pyrazino[2,1-b][1,3]oxazocines and methods for treating viral infections” (Gilead Sciences, Inc., priority 2012, dated 2020)
